Experimental data published in ChEMBL document CHEMBL4251653, “In vivo potent BM635 analogue with improved drug-like properties” (Eur J Med Chem, 2018).
In brackets after ≈: the same amount, converted by molar mass.

Columns and labels:
[1] = Cytotoxicity against human HepG2 cells incubated for 48 hrs by Cell-titer Glo assay; assay type: cell-based; details: read-out: TC50
[2] = tested on: HepG2; experiment: Cytotoxicity against human HepG2 cells assessed as compound concentration causing changes in nuclear morphology by Cell Health assay; assay type: cell-based
[3] = tested on: HepG2; experiment: Cytotoxicity against human HepG2 cells assessed as compound concentration causing changes in membrane permeability by Cell Health assay; assay type: cell-based
[4] = tested on: HepG2; experiment: Cytotoxicity against human HepG2 cells assessed as compound concentration causing changes in mitochondrial potential by Cell Health assay; assay type: cell-based
[5] = Lipophilicity, log D of the compound at pH 7.4 by UV-HPLC method; assay type: physicochemical; details: buffer, read-out: logD
[6] = Permeability of the compound by artificial membrane permeability assay; assay type: ADME; details: PAMPA; read-out: permeability
[7] = biological target: Albumin (Homo sapiens, UniProt P02768); experiment: Binding affinity to human serum albumin; assay type: ADME; details: isolated protein
[8] = Kinetic solubility in pH 7.4 phosphate buffered saline incubated for 1 hr by chemiluminescent nitrogen detection method; assay type: physicochemical; details: read-out: Kinetic_solubility
[9] = Solubility of the compound in FaSSIF at pH 6.5 incubated for 4 hrs by UPLC-MS method; assay type: physicochemical
[10] = biological target: Voltage-gated inwardly rectifying potassium channel KCNH2 (Homo sapiens, UniProt Q12809); experiment: Inhibition of human ERG by [3H]dofetilide binding displacement assay
[11] = Volume of distribution at steady state in C57BL/6 mouse at 1 mg/kg, iv after 1 to 24 hrs by LC-MS/MS method; assay type: ADME, organism-based; details: in vivo, read-out: Vdss
[12] = AUC (0 to infinity) in C57BL/6 mouse at 1 mg/kg, iv after 1 to 24 hrs by LC-MS/MS method; assay type: ADME, organism-based; design: dose 1 mg/kg, time infinity, route intravenous; details: in vivo
[13] = tested on: Mus musculus; experiment: Dose normalized AUC (0 to infinity) in C57BL/6 mouse at 1 mg/kg, iv after 1 to 24 hrs by LC-MS/MS method; assay type: ADME, organism-based; details: in vivo
[14] = Clearance in C57BL/6 mouse at 1 mg/kg, iv after 1 to 24 hrs by LC-MS/MS method; assay type: ADME, organism-based; details: in vivo
[15] = Half life in C57BL/6 mouse at 1 mg/kg, iv after 1 to 24 hrs by LC-MS/MS method; assay type: ADME, organism-based; details: in vivo
[16] = Tmax in C57BL/6 mouse at 50 mg/kg, po after 1 to 24 hrs by LC-MS/MS method; assay type: ADME, organism-based; details: in vivo
[17] = Cmax in C57BL/6 mouse at 50 mg/kg, po after 1 to 24 hrs by LC-MS/MS method; assay type: ADME, organism-based; design: dose 50 mg/kg, route oral; details: in vivo
[18] = tested on: Mus musculus; experiment: Tlast in C57BL/6 mouse at 50 mg/kg, po after 1 to 24 hrs by LC-MS/MS method; assay type: ADME, organism-based; details: in vivo
[19] = Oral bioavailability in C57BL/6 mouse at 50 mg/kg after 1 to 24 hrs by LC-MS/MS method; assay type: ADME, organism-based; details: in vivo
[20] = tested on: Mycobacterium tuberculosis; assay type: functional, H37Rv
[21] = in vitro; details: human, HepG2 cells
Description: Selectivity index, ratio of TC50 for human HepG2 cells to MIC for Mycobacterium tuberculosis

[22] = tested on: Mycobacterium tuberculosis; experiment: microbe, parasite or virus in culture; details: 144 h
Description: Antitubercular activity against Mycobacterium tuberculosis after 6 days by resazurin-based fluorescence assay

[23] = tested on: Mycobacterium tuberculosis; experiment: microbe, parasite or virus in culture; details: H37Rv, THP-1, 96 h
Description: Antitubercular activity against Mycobacterium tuberculosis H37Rv infected in human THP1 macrophages incubated for 4 days by luciferase reporter gene assay

[24] = Volume of distribution at steady state in C57BL/6 mouse at 4 mg/kg, iv after 1 to 24 hrs by LC-MS/MS method; assay type: ADME, organism-based; details: in vivo, read-out: Vdss
[25] = AUC (0 to infinity) in C57BL/6 mouse at 4 mg/kg, iv after 1 to 24 hrs by LC-MS/MS method; assay type: ADME, organism-based; design: dose 4 mg/kg, route intravenous, time infinity; details: in vivo
[26] = tested on: Mus musculus; experiment: Dose normalized AUC (0 to infinity) in C57BL/6 mouse at 4 mg/kg, iv after 1 to 24 hrs by LC-MS/MS method; assay type: ADME, organism-based; details: in vivo
[27] = Clearance in C57BL/6 mouse at 4 mg/kg, iv after 1 to 24 hrs by LC-MS/MS method; assay type: ADME, organism-based; details: in vivo
[28] = Half life in C57BL/6 mouse at 4 mg/kg, iv after 1 to 24 hrs by LC-MS/MS method; assay type: ADME, organism-based; details: in vivo
[29] = tested on: Mycobacterium tuberculosis; assay type: functional, H37Rv; remark: listed apart in the source

Chain of Albumin (P02768 whole entry): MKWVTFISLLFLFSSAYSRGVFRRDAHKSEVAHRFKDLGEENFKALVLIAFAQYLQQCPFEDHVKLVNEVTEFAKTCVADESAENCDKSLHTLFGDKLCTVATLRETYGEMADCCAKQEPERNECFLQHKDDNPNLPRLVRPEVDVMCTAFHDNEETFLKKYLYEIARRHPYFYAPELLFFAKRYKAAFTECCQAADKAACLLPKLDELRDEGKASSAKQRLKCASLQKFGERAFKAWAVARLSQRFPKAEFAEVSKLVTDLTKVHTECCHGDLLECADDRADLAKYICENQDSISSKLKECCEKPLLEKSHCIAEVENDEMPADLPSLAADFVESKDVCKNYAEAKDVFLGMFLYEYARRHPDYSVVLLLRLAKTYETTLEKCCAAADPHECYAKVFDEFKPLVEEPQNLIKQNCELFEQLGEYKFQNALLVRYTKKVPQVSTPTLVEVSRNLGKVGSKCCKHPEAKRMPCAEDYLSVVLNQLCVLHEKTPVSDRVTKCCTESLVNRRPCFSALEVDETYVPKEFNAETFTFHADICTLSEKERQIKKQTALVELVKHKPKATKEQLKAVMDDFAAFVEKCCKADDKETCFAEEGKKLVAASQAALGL
Chain of Voltage-gated inwardly rectifying potassium channel KCNH2 (Q12809 whole entry): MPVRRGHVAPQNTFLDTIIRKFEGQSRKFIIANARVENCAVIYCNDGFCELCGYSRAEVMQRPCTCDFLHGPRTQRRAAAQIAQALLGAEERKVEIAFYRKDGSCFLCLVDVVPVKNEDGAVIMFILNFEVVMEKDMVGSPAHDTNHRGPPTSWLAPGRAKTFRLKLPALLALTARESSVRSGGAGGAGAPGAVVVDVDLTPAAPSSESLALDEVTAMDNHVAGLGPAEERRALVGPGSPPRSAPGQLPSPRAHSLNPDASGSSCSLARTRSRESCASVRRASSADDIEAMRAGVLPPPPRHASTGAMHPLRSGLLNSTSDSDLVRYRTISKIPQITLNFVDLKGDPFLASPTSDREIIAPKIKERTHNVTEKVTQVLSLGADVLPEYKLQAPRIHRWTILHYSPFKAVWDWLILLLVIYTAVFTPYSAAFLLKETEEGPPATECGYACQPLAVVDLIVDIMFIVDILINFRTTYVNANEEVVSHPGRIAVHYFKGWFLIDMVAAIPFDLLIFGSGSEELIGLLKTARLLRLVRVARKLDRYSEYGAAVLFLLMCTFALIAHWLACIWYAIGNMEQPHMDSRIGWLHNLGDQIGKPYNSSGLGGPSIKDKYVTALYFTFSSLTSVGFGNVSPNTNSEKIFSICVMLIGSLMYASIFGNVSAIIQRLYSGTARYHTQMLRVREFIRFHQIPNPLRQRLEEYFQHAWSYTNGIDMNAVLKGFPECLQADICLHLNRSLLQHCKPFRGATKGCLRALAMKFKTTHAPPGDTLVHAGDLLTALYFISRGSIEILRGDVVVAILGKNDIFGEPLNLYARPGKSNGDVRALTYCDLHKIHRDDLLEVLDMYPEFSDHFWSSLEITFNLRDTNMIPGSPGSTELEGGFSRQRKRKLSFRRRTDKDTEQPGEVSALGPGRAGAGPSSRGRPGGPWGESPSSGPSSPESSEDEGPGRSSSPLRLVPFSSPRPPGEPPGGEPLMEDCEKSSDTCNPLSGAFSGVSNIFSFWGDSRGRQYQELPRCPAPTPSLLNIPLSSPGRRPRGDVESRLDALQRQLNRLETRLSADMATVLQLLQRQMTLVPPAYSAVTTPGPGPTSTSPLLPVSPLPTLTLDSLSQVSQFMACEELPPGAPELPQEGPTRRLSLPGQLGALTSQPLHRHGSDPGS

SMILES	CC50 at 48 h [1] [µM]	Activity [2] [µM]	Activity [3] [µM]	Activity [4] [µM]	logD [5]	Papp [6] [×10⁻⁶ cm/s]	Activity [7] [%]	solubility kinetic at 1 h [8] [µM]	solubility at 4 h [9] [µg/mL]	Tmax [16] [min]	Cmax [17] [ng/mL]	Tlast [18] [h]	bioavailability [19] [%]	Activity [20] [log10CFU]	MIC [22] [µM]	other results
Cc1c(CN2CCOCC2)cc(-c2ccc(C(C)C)cc2)n1C1CCCOC1 (centres undefined)	50	> 200	> 200	> 200	6.86	73	92.85	241 (≈ 92.2 µg/mL)	43 (≈ 112 µM)	54	548	8	23	0.1	0.15 (≈ 0.0574 µg/mL)	IC50 [10]: 10 µM; Vd [11]: 3.5 L/kg; AUC(0-inf) [12]: 138 ng·h/mL; AUC/dose [13]: 138 ng·h/mL/mg/kg; clearance [14]: 125 mL/min/kg; half-life [15]: 24 min; selectivity ratio [21]: 333; IC50 [23]: 0.3 µM
Cc1c(CN2CCOCC2)cc(-c2ccc(C(C)C)cc2)n1C(C)C	20	25	32	32	7.68	72	94.11	199 (≈ 67.8 µg/mL)	249 (≈ 731 µM)	42	177	7.3	1.2	1.5	0.15 (≈ 0.0511 µg/mL)	Vd [24]: 1.8 L/kg; AUC(0-inf) [25]: 4020 ng·h/mL; AUC/dose [26]: 1006 ng·h/mL/mg/kg; clearance [27]: 16.9 mL/min/kg; half-life [28]: 102 min
COc1c(N2C[C@@H]3CCCN[C@@H]3C2)c(F)cc2c(=O)c(C(=O)O)cn(C3CC3)c12 [MOXIFLOXACIN]																Activity [29]: 3.1 log10CFU
